Laboratory results from patent US20100081661A1, “HEME OXYGENASE INHIBITORS, SCREENING METHODS FOR HEME OXYGENASE INHIBITORS AND METHODS OF USE OF HEME OXYGENASE INHIBITORS FOR ANTIMICROBIAL THERAPY” (UNIVERSITY OF MARYLAND, BALTIMORE, priority 2006, published 2010).

Target: pa-HO (Pseudomonas aeruginosa, UniProt O69002)
Type: binding
Conditions: Table 2; paHO

pa-HO, sequence (O69002 1-198): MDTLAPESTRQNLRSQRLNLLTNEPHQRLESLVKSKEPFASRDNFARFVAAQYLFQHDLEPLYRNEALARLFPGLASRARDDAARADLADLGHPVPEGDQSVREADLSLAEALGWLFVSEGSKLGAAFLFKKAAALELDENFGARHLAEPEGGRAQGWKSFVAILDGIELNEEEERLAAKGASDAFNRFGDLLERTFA

| Compound | NMR sat. transfer |
| --- | --- |
| CCN1CCN(CCN)CC1 [Compound 90] | Alias: CD-19 fluorescence binding: nd minimum inhibition conc: nd NMR sat. transfer: do not bind paHO |
| Cc1ccc(CN2CCN(Cc3ccccc3)CC2)cc1 [Compound 80] | Alias: CB-10 fluorescence binding: nd minimum inhibition conc: nd NMR sat. transfer: binds paHO |
| O=C(O)c1cc(-c2cccnc2)nc2ccccc12 [Compound 62] | Alias: CB-23 fluorescence binding: nd minimum inhibition conc: nd NMR sat. transfer: does not bind paHO |
| Cc1nc(NCCCC(=O)O)c2ccccc2n1 [Compound 71] | Alias: Spec-6 fluorescence binding: nd minimum inhibition conc: nd NMR sat. transfer: do not bind paHO |
| Oc1ccccc1/C=N/Nc1nnn[nH]1 [Compound 140] | Alias: CB-11 fluorescence binding: nd minimum inhibition conc: nd NMR sat. transfer: binds paHO |
| NC(=O)c1ccc[n+](-c2ccccc2)c1 [Compound 91] | Alias: Spec-10 fluorescence binding: nd minimum inhibition conc: nd NMR sat. transfer: do not bind paHO |
| NCCNS(=O)(=O)c1cccc(C(=O)O)c1 [Compound 18] | Alias: Spec-7 fluorescence binding: nd minimum inhibition conc: nd NMR sat. transfer: do not bind paHO |
| C=CCNC(=O)C(=O)Nc1ccc(C(C)C)cc1 [Compound 124] | Alias: CB-30 fluorescence binding: nd minimum inhibition conc: nd NMR sat. transfer: tested, ambiguous |
| NC(=O)NC(=O)C[n+]1ccc(C(N)=O)cc1 [Compound 34] | Alias: CD-3 fluorescence binding: nd minimum inhibition conc: nd NMR sat. transfer: do not bind paHO |
| Cc1cccc(NC(=O)c2ccc(C(=O)Nc3cccc(C)n3)cc2)n1 [Compound 39] | Alias: CB-20 fluorescence binding: nd minimum inhibition conc: nd NMR sat. transfer: tested, ambiguous |
| N#CCc1ccc(NC2=NS(=O)(=O)c3ccccc32)cc1 [Compound 56] | Alias: CD-16 fluorescence binding: nd minimum inhibition conc: nd NMR sat. transfer: do not bind paHO |
| O=C(O)Cn1c(=O)c2cc3c(=O)n(CC(=O)O)c(=O)c3cc2c1=O [Compound 4] | Alias: CB-2 fluorescence binding: nd minimum binding conc: nd NMR sat. transfer: do not bind paHO |
| O=C(O)CN1C(=O)c2ccccc2C1=O [Compound 5] | Alias: CB-4 fluorescence binding: nd minimum inhibition conc: nd NMR sat. transfer: binds paHO |
| c1cncc(CNCc2cccnc2)c1 [Compound 64] | Alias: Spec-12 fluorescence binding: nd minimum inhibition conc: nd NMR sat. transfer: do not bind paHO |
| O=C(NCc1ccco1)c1cc(C(=O)NCc2ccco2)cc([N+](=O)[O-])c1 [Compound 40] | Alias: CB-25 fluorescence binding: nd minimum inhibition conc: nd NMR sat. transfer: does not bind paHO |
| O=C(CNC(=O)c1cccnc1)N/N=C/c1ccccn1 [Compound 9] | Alias: CD-21 fluorescence binding: nd minimum inhibition conc: nd NMR sat. transfer: do not bind paHO |
| C(=N\Nc1nc(-c2cccnc2)cs1)/c1cccnc1 [Compound 3] | Alias: CB-28 fluorescence binding: nd minimum inhibition conc: nd NMR sat. transfer: does not bind paHO |
| COc1cc(/C=N/Cc2ccco2)ccc1O [Compound 104] | Alias: CD-13 fluorescence binding: nd minimum inhibition conc: nd NMR sat. transfer: do not bind paHO |
| COc1ccc(C(=O)COC(=O)/C=C/c2ccccc2)cc1 [Compound 74] | Alias: CB-1 fluorescence binding: nd minimum inhibition conc: nd NMR sat. transfer: do not bind paHO |
| O=C(CNc1ccc2ccccc2c1)N/N=C/c1ccccn1 [Compound 10] | Alias: CD-8 fluorescence binding: nd minimum inhibition conc: nd NMR sat. transfer: do not bind paHO |

| Compound | NMR sat. transfer |
| --- | --- |
| O=C(N/N=C/c1ccc(O)cc1O)c1cccnc1 [Compound 11] | Alias: CD-20 fluorescence binding: nd minimum inhibition conc: nd NMR sat. transfer: do not bind paHO |
| O=C1OC(c2ccccc2)=N/C1=C\Nc1cccc([N+](=O)[O-])c1 [Compound 147] | Alias: CB-26 fluorescence binding: nd minimum inhibition conc: nd NMR sat. transfer: does not bind paHO |
| O=CNc1nonc1NNc1ccccc1 [Compound 144] | Alias: CB-15 fluorescence binding: nd minimum inhibition conc: nd NMR sat. transfer: tested, ambiguous |
| Cc1ccccc1C(=O)Nc1cc(C(=O)O)cc(C(=O)O)c1 [Compound 6] | Alias: CB-17 fluorescence binding: nd minimum inhibition conc: nd NMR sat. transfer: binds paHO |
| CN(C)CCN(C)Cc1cccc2ccccc12 [Compound 98] | Alias: CB-12 fluorescence binding: nd minimum inhibition conc: nd NMR sat. transfer: binds paHO |
| O=C(O)c1ccc2c(c1)C(=O)N(c1ccc(Cl)cc1)C2=O [Compound 77] | Alias: CB-16 fluorescence binding: nd minimum inhibition conc: nd NMR sat. transfer: binds paHO |
| CC(C)c1ccc(CN2CCN(CCO)CC2)cc1 [Compound 132] | Alias: CB-13 fluorescence binding: nd minimum inhibition conc: nd NMR sat. transfer: tested, ambiguous |
| Cn1c(=N)n(CC(=O)O)c2ccccc21 [Compound 153] | Alias: CD-9 fluorescence binding: nd minimum inhibition conc: nd NMR sat. transfer: do not bind paHO |
| N#Cc1ncc(-c2ccccc2)nc1C#N [Compound 120] | Alias: Spec-15 fluorescence binding: nd minimum inhibition conc: nd NMR sat. transfer: do not bind paHO |
| O=C(Oc1ccc(OC(=O)c2ccco2)cc1)c1ccco1 [Compound 47] | Alias: CB-3 fluorescence binding: nd minimum inhibition conc: nd NMR sat. transfer: do not bind paHO |
| Nc1nonc1-c1noc(-c2cccnc2O)n1 [Compound 113] | Alias: CD-17 fluorescence binding: nd minimum inhibition conc: nd NMR sat. transfer: do not bind paHO |
| O=C(O)c1ccc2c(c1)-c1nc3ccccc3n1C2=O [Compound 57] | Alias: CD-4 fluorescence binding: nd minimum inhibition conc: nd NMR sat. transfer: do not bind paHO |
| CCc1ccc2[nH]c3nc(N/N=C/c4ccc(O)cc4)nnc3c2c1 [Compound 139] | Alias: CB-27 fluorescence binding: nd minimum inhibition conc: nd NMR sat. transfer: does not bind paHO |
| O=C(O)c1ccc2c(c1)C(=O)N(CCO)C2=O [Compound 151] | Alias: CB-8 fluorescence binding: nd minimum inhibition conc: nd NMR sat. transfer: binds paHO |
| Cc1n[nH]c(Nc2ccccc2F)c1[N+](=O)[O-] [Compound 20] | Alias: CD-6 fluorescence binding: nd minimum inhibition conc: nd NMR sat. transfer: do not bind paHO |
| C=CCn1c(S)cc2sc3c(c2c1=O)CCN(C)C3 [Compound 128] | Alias: Spec-4 fluorescence binding: nd minimum inhibition conc: nd NMR sat. transfer: do not bind paHO |
| O=C(O)CCn1ncc2ccccc21 [Compound 51] | Alias: CD-5 fluorescence binding: nd minimum inhibition conc: nd NMR sat. transfer: do not bind paHO |
| Nc1nnnn1/N=C/c1cc2c(cc1[N+](=O)[O-])OCO2 [Compound 143] | Alias: CB-19 fluorescence binding: nd minimum inhibition conc: nd NMR sat. transfer: binds paHO |
| O=C(O)c1c[nH]c2c(ccc3ccccc32)c1=O [Compound 52] | Alias: Spec-2 fluorescence binding: nd minimum inhibition conc: nd NMR sat. transfer: do not bind paHO |
| Cc1ccc(NC(=O)c2cnccn2)cc1Cl [Compound 38] | Alias: CB-24 fluorescence binding: nd minimum inhibition conc: nd NMR sat. transfer: does not bind paHO |
